Assay results reported in US9394273B2, “Therapeutic prostaglandin receptor agonists” (Allergan, Inc., priority 2014, dated 2016).

How the values were obtained:
[1] = biological target: T1, EP2 (Homo sapiens (Human), UniProt P43116); test: EP2 binding assay (Ki)
Excerpt: (§1) U.S. patent application publication No. 20070129552, published on Jun. 7, 2007, incorporated by reference herein, describes the methods used to obtain the in vitro data in Table 1 below.

[2] = biological target: T2, prostaglandin EP4 receptor (Homo sapiens (Human), UniProt P35408); test: EP4 cAMP functional assay; assay type: cell-based
T2 sequence (P35408 whole entry): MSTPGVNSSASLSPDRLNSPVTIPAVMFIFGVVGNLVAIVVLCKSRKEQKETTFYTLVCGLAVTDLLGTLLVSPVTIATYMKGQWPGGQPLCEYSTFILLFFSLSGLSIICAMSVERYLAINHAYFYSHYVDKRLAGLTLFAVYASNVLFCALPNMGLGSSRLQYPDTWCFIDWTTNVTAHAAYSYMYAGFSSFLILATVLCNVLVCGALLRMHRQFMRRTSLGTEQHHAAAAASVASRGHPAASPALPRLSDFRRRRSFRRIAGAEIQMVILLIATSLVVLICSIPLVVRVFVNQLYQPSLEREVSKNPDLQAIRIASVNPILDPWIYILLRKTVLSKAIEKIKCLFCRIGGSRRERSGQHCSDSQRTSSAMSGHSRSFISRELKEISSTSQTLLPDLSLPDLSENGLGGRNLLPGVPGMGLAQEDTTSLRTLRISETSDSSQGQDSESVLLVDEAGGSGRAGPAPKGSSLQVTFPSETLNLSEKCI
Excerpt: as §1

[3] = biological target: T2, prostaglandin EP4 receptor; test: EP4 binding assay (Ki); details: read-out: EP4 Ki EC50
Excerpt: as §1

[4] = biological target: T1, EP2; test: EP2 cAMP functional assay; assay type: cell-based
Excerpt: as §1

[5] = biological target: EP3 (Homo sapiens (Human), UniProt P43115); test: Other receptors FLIPR: EP3; assay type: cell-based; details: NA undefined in patent
Chain of EP3 (P43115 whole entry): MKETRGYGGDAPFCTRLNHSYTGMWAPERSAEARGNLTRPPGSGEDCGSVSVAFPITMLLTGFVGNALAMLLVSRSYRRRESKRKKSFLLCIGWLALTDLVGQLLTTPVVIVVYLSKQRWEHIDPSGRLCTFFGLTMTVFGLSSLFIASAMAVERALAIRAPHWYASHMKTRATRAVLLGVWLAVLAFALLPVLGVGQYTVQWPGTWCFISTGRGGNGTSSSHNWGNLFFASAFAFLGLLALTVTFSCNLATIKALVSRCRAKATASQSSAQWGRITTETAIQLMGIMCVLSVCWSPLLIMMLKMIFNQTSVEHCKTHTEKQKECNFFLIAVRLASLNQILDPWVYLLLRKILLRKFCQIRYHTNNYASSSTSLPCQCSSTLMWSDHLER
Excerpt: as §1

[6] = biological target: TP (Homo sapiens (Human), UniProt P21731); test: Other receptors FLIPR: TP; assay type: cell-based; details: NA undefined in patent
Chain of TP (P21731 whole entry): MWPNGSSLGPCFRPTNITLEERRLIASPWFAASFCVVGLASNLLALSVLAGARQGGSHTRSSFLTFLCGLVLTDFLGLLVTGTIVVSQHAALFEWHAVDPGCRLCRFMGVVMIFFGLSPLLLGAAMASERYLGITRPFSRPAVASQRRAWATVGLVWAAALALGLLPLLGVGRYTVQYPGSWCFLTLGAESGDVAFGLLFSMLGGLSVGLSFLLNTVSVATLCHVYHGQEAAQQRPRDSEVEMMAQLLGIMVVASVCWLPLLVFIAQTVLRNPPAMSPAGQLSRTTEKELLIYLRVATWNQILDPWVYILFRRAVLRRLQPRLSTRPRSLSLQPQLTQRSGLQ
Excerpt: as §1

T1 sequence (P43116 whole entry): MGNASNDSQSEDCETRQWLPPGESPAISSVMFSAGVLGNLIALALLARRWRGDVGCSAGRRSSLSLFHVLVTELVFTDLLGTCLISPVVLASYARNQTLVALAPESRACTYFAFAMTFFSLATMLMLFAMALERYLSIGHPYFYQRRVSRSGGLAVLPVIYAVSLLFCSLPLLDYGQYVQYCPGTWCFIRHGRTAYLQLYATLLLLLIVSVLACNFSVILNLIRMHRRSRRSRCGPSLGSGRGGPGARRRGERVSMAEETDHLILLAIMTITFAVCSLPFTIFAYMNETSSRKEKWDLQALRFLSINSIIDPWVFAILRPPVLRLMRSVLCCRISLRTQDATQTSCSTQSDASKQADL

SMILES | EP2 Ki (nM) [1] | EC50 [2] | Ki [3] | EP2 cAMP EC50 (nM) [4] | EC50 [4] | Ki [1] | EC50 [5] | EC50 [6] | OTHER RECEPTORS FLIPR EC50 (nM): TP [6]
O=C(O)c1ccc(CC[C@H]2C(=O)CC[C@@H]2/C=C/C(O)Cc2ccc3ccccc3c2)cc1 (single isomer, unassigned) [Entry 1] | >10K | 1 nM | 0.8 nM | – | – | – | – | – | –
O=C(O)c1ccc(CC[C@H]2C(=O)CC[C@@H]2/C=C/C(O)Cc2ccc3ccccc3c2)cc1 (single isomer, unassigned) [Entry 2] | >10K | 21 nM | 10 nM | – | – | – | – | – | –
O=C(O)c1ccc(CC[C@H]2C(=O)CC[C@@H]2/C=C/C(O)Cc2cccc(F)c2)cc1 (single isomer, unassigned) [Entry 6, (E)-4-(2-(2-(4-(3-fluorophenyl)-3-hydroxybut-1-en-1-yl)-5-oxocyclopentyl)ethyl)benzoic acid] | – | 0.04 nM | 2 nM | – | 10 nM | 1780 nM | 721 nM | 7190 nM | –
O=C(O)c1ccc(CC[C@H]2C(=O)CC[C@@H]2/C=C/C(O)Cc2cccc(Br)c2)cc1 (single isomer, unassigned) [Entry 9, (E)-4-(2-(2-(4-(3-bromophenyl)-3-hydroxybut-1-en-1-yl)-5-oxocyclopentyl)ethyl)benzoic acid] | – | – | – | – | 278 nM | 1450 nM | – | – | –
O=C(O)c1ccc(CC[C@H]2C(=O)CC[C@@H]2/C=C/C(O)Cc2cccc(Br)c2)cc1 (single isomer, unassigned) [Entry 10, (E)-4-(2-(2-(4-(3-bromophenyl)-3-hydroxybut-1-en-1-yl)-5-oxocyclopentyl)ethyl)benzoic acid] | – | – | – | – | 26 nM | 947 nM | 180 nM | 108 nM | –
O=C(O)c1ccc(CC[C@H]2C(=O)CC[C@@H]2/C=C/C(O)Cc2cccc(C(F)(F)F)c2)cc1 (single isomer, unassigned) [Entry 12, (E)-4-(2-(2-(3-hydroxy-4-(3-(trifluoromethyl)phenyl)but-1-en-1-yl)-5-oxocyclopentyl)ethyl)benzoic acid] | – | 0.2 nM | 1 nM | – | 35 nM | 1310 nM | – | 218 nM | –
O=C(O)c1ccc(CC[C@H]2C(=O)CC[C@@H]2/C=C/C(O)Cc2ccc(F)cc2)cc1 (single isomer, unassigned) [Entry 19, (E)-4-(2-(2-(4-(4-fluorophenyl)-3-hydroxybut-1-en-1-yl)-5-oxocyclopentyl)ethyl)benzoic acid] | – | 38 nM | 902 nM | – | – | 9290 nM | – | – | –
O=C(O)c1ccc(CC[C@H]2C(=O)CC[C@@H]2/C=C/C(O)Cc2ccccc2F)cc1 (single isomer, unassigned) [Entry 21, (E)-4-(2-(2-(4-(2-fluorophenyl)-3-hydroxybut-1-en-1-yl)-5-oxocyclopentyl)ethyl)benzoic acid] | – | 4 nM | 64 nM | – | 76 nM | 2220 nM | – | – | –
O=C(O)c1ccc(CC[C@H]2C(=O)CC[C@@H]2/C=C/C(O)Cc2ccccc2F)cc1 (single isomer, unassigned) [Entry 22, (E)-4-(2-(2-(4-(2-fluorophenyl)-3-hydroxybut-1-en-1-yl)-5-oxocyclopentyl)ethyl)benzoic acid] | – | 0.3 nM | 4 nM | – | 8 nM | 1030 nM | 4670 nM | – | –
O=C(O)c1ccc(CC[C@H]2C(=O)CC[C@@H]2/C=C/C(O)Cc2cccc(F)c2F)cc1 (single isomer, unassigned) [Entry 25, (E)-4-(2-(2-(4-(2,3-difluorophenyl)-3-hydroxybut-1-en-1-yl)-5-oxocyclopentyl)ethyl)benzoic acid] | – | 30 nM | 585 nM | – | 164 nM | 3150 nM | – | – | –
O=C(O)c1ccc(CC[C@H]2C(=O)CC[C@@H]2/C=C/C(O)Cc2cccc(F)c2F)cc1 (single isomer, unassigned) [Entry 26, (E)-4-(2-(2-(4-(2,3-difluorophenyl)-3-hydroxybut-1-en-1-yl)-5-oxocyclopentyl)ethyl)benzoic acid] | – | 0.2 nM | 2 nM | – | 8 nM | 1240 nM | 9950 nM | – | –
O=C(O)c1ccc(CC[C@H]2C(=O)CC[C@@H]2/C=C/C(O)Cc2cc(F)ccc2F)cc1 (single isomer, unassigned) [Entry 27, (E)-4-(2-(2-(4-(2,5-difluorophenyl)-3-hydroxybut-1-en-1-yl)-5-oxocyclopentyl)ethyl)benzoic acid] | – | 18 nM | 457 nM | – | 125 nM | 3630 nM | – | – | –
O=C(O)c1ccc(CC[C@H]2C(=O)CC[C@@H]2/C=C/C(O)Cc2cc(F)ccc2F)cc1 (single isomer, unassigned) [Entry 28, (E)-4-(2-(2-(4-(2,5-difluorophenyl)-3-hydroxybut-1-en-1-yl)-5-oxocyclopentyl)ethyl)benzoic acid] | – | 0.2 nM | 5 nM | – | 10 nM | 1300 nM | 5990 nM | – | –
O=C(O)c1ccc(CC[C@H]2C(=O)CC[C@@H]2/C=C/C(O)Cc2ccc3ccsc3c2)cc1 (stereo partly drawn) [Entry 15, (E)-4-(2-(2-(4-(benzo[b]thiophen-6-yl)-3-hydroxybut-1-en-1-yl)-5-oxocyclopentyl)ethyl)benzoic acid] | >10K | 0.5 nM | 41 nM | – | – | – | 67 nM | – | < 10000 nM
COc1ccc2cc(CC(O)/C=C/[C@H]3CCC(=O)[C@@H]3CCc3ccc(C(=O)O)cc3)ccc2c1 (stereo partly drawn) [Entry 16, (E)-4-(2-(2-(3-hydroxy-4-(6-methoxynaphthalen-2-yl)but-1-en-1-yl)-5-oxocyclopentyl)ethyl)benzoic acid] | >10K | 728 nM | 2660 nM | – | – | – | – | – | –
COc1ccc2ccc(CC(O)/C=C/[C@H]3CCC(=O)[C@@H]3CCc3ccc(C(=O)O)cc3)cc2c1 (stereo partly drawn) [Entry 18, (E)-4-(2-(2-(3-hydroxy-4-(7-methoxynaphthalen-2-yl)but-1-en-1-yl)-5-oxocyclopentyl)ethyl)benzoic acid] | >10K | 2 nM | 9 nM | – | – | – | – | – | –

Continued by falling Ki [3], values first:

EP2 Ki (nM) [1] | EC50 [2] | Ki [3] | EP2 cAMP EC50 (nM) [4] | EC50 [4] | Ki [1] | EC50 [5] | EC50 [6] | OTHER RECEPTORS FLIPR EC50 (nM): TP [6] | SMILES
>10K | – | 4620 nM | – | – | – | – | – | – | COc1cc2ccccc2cc1CC(O)/C=C/[C@H]1CCC(=O)[C@@H]1CCc1ccc(C(=O)O)cc1 (stereo partly drawn) [Entry 17, (E)-4-(2-(2-(3-hydroxy-4-(3-methoxynaphthalen-2-yl)but-1-en-1-yl)-5-oxocyclopentyl)ethyl)benzoic acid]
>10K | 1280 nM | 2310 nM | >10K | – | – | – | – | – | O=C(O)c1ccc(CC[C@H]2C(=O)CC[C@@H]2/C=C/C(O)Cc2sc3ccccc3c2Cl)cc1 (single isomer, unassigned) [Entry 3, (E)-4-(2-(2-(4-(3-chlorobenzo[b]thiophen-2-yl)-3-hydroxybut-1-en-1-yl)-5-oxocyclopentyl)ethyl)benzoic acid]
>10K | 186 nM | 603 nM | >10K | – | – | – | – | – | O=C(O)c1ccc(CC[C@H]2C(=O)CC[C@@H]2/C=C/C(O)Cc2sc3ccccc3c2Cl)cc1 (single isomer, unassigned) [Entry 4, (E)-4-(2-(2-(4-(3-chlorobenzo[b]thiophen-2-yl)-3-hydroxybut-1-en-1-yl)-5-oxocyclopentyl)ethyl)benzoic acid]
– | 21 nM | 293 nM | – | – | 9320 nM | – | – | – | O=C(O)c1ccc(CC[C@H]2C(=O)CC[C@@H]2/C=C/C(O)Cc2ccc(F)c(F)c2)cc1 (single isomer, unassigned) [Entry 23, (E)-4-(2-(2-(4-(3,4-difluorophenyl)-3-hydroxybut-1-en-1-yl)-5-oxocyclopentyl)ethyl)benzoic acid]
– | 16 nM | 90 nM | – | 1010 nM | 3160 nM | – | – | – | O=C(O)c1ccc(CC[C@H]2C(=O)CC[C@@H]2/C=C/C(O)Cc2cccc(C(F)(F)F)c2)cc1 (single isomer, unassigned) [Entry 11, (E)-4-(2-(2-(3-hydroxy-4-(3-(trifluoromethyl)phenyl)but-1-en-1-yl)-5-oxocyclopentyl)ethyl)benzoic acid]
– | 1 nM | 40 nM | – | 78 nM | 3420 nM | – | – | – | O=C(O)c1ccc(CC[C@H]2C(=O)CC[C@@H]2/C=C/C(O)Cc2cccc(F)c2)cc1 (single isomer, unassigned) [Entry 5, (E)-4-(2-(2-(4-(3-fluorophenyl)-3-hydroxybut-1-en-1-yl)-5-oxocyclopentyl)ethyl)benzoic acid]
– | 0.2 nM | 3 nM | – | 11 nM | 745 nM | 952 nM | 5600 nM | – | O=C(O)c1ccc(CC[C@H]2C(=O)CC[C@@H]2/C=C/C(O)Cc2ccc(F)cc2)cc1 (single isomer, unassigned) [Entry 20, (E)-4-(2-(2-(4-(4-fluorophenyl)-3-hydroxybut-1-en-1-yl)-5-oxocyclopentyl)ethyl)benzoic acid]
– | 0.3 nM | 3 nM | – | 30 nM | 1530 nM | 1510 nM | 2450 nM | – | O=C(O)c1ccc(CC[C@H]2C(=O)CC[C@@H]2/C=C/C(O)Cc2ccc(F)c(F)c2)cc1 (single isomer, unassigned) [Entry 24, (E)-4-(2-(2-(4-(3,4-difluorophenyl)-3-hydroxybut-1-en-1-yl)-5-oxocyclopentyl)ethyl)benzoic acid]
– | 2 nM | 2 nM | – | 123 nM | 2760 nM | – | 4830 nM | – | O=C(O)c1ccc(CC[C@H]2C(=O)CC[C@@H]2/C=C/C(O)Cc2cccc(Cl)c2)cc1 (stereo partly drawn) [Entry 7, (E)-4-(2-(2-(4-(3-chlorophenyl)-3-hydroxybut-1-en-1-yl)-5-oxocyclopentyl)ethyl)benzoic acid]
